The source of these data is paper PMC12220852, “An adamantane‐based ligand as a novel chemical tool for thermosensory TRPM8 channel therapeutic modulation” (The Febs Journal, 2025).

“Also recorded” adds a separate entry of the source.

The target in assay [1] is T1, recombinant human TRPM8 stably expressed in HEK293 cells (hTRPM8) (Homo sapiens, UniProt Q7Z2W7).
T1 construct: expressed in transfected cells
As to the kind of experiment: Ca2+ microfluorimetry screen for agonist/antagonist activity in hTRPM8-HEK293 cells. Type of assay: cell-based. The settings on record: for Activity (agonist/antagonist) / EC50 / IC50: hTRPM8-HEK293; for Activity (agonist/antagonist): agonism = compound-induced Ca2+ influx, antagonism = modulation of WS-12-induced Ca2+ influx; for EC50: half of channel activation; for EC50 / Hill coefficient / IC50: mean ± SD; for EC50 / IC50: N = 3; for Hill coefficient: hTRPM8-HEK293 Ca2+ microfluorimetry dose-response; for IC50: block of half channel activity evoked by WS-12, read-out: IC50. From the text: We first evaluated the series of compounds 20–29 synthesized using the Passerini‐Adamantane reaction. All compounds were screened for channel agonism and antagonism on recombinant human TRPM8 stably expressed in HEK293 cells (hTRPM8‐HEK293) with Ca^2+ microfluorimetry. […] Compound‐induced TRPM8‐mediated Ca^2+ influx was confirmed using untransfected HEK293 cells and the channel blocker AMTB. […] The concentration of compounds to reach half of channel activation (EC50) or to block half‐channel activity evoked by WS‐12 (IC50) are reported in Table 1, along with the percentage of maximal activation or blockade (Efficacy).
Assays were conducted to assess the channel activity of the recombinant hTRPM8 stably expressed in HEK‐293 cells. HEK‐293‐hTRPM8 cells were cultured in a monolayer using a DMEM GlutaMax with 10% FBS and 1% P/S and maintained at 37 °C in 5% CO2. For experiments, cells were prepared and seeded at the indicated densities. To evaluate compound effectiveness against hTRPM8 activity, microfluorometry‐based calcium flux assays were performed using Fluo‐4 NW Ca^2+ dye and fluorescence detection. HEK cell lines expressing hTRPM8 were seeded in 96‐well plates and incubated with the dye‐loading solution. Ion channel activity was measured using a plate reader, and fluorescence intensity changes were recorded following the addition of vehicle, compound at varying concentrations, and antagonist (10 μM AMTB). Data analysis included calculating the Z‐factor for each assay and normalizing compound effects to […]. Data were analyzed to determine the concentration exerting half‐maximal inhibition (IC50) or activation (EC50) of agonist‐induced calcium elevation, using GRAPHPAD PRISM8® software (Boston, MA, USA). All experiments were conducted in triplicate, and results are presented as mean ± standard deviation.

The target in assay [2] is T1, recombinant human TRPM8 stably expressed in HEK293 cells (hTRPM8). The description is as above. The assay is classed as cell-based. The settings on record: agonists vs WS-12, antagonists vs WS-12 response, read-out: Efficacy (percentage of maximal activation or blockade).

T1 sequence (Q7Z2W7 whole entry): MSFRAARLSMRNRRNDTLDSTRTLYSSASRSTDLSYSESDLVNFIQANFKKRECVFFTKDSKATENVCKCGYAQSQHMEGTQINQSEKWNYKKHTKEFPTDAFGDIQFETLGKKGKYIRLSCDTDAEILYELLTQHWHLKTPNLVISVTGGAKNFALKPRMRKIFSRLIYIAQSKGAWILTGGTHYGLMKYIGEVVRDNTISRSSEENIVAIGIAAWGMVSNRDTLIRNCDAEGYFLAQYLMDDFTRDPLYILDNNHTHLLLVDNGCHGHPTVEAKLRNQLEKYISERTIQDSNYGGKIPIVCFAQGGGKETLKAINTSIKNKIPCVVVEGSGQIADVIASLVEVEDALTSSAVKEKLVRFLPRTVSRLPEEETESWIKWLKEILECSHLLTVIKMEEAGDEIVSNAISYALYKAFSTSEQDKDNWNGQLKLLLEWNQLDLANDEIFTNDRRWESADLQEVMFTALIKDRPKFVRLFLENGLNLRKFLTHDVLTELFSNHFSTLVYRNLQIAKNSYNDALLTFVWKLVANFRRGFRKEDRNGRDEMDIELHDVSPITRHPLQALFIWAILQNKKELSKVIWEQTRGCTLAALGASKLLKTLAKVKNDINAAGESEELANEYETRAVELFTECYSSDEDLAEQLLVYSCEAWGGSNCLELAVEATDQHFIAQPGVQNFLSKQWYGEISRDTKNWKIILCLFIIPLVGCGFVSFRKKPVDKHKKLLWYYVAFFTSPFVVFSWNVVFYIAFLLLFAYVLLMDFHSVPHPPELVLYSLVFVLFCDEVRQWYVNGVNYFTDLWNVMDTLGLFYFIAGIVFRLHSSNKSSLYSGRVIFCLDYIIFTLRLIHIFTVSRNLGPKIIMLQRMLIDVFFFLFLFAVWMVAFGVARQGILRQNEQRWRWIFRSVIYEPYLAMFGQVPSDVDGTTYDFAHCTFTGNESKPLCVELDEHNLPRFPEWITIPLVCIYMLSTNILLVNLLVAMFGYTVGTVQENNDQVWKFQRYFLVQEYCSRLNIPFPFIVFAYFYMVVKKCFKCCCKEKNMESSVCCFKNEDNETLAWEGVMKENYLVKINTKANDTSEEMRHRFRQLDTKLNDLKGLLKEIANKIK

One may read the EC50 as the concentration needed to bring the measured effect to its halfway point. The term Hill coefficient denotes a measure of the steepness of the concentration-response curve. Take `CC(=O)N(CC(=O)NC12CC3CC(CC(C3)C1)C2)C1CCCCC1` [Compound 37, N‐((3S,5S,7S)‐adamantan‐1‐yl)‐2‐(N‐cyclohexylacetamido)acetamide]: in assay [1], the “Activity (agonist/antagonist)” value is “Agonist”, the EC50 was found to be 200 nM and the Hill coefficient was 0.9 ± 9.2. In addition, the Emax in assay [2] was determined as 48%.

`O=C(CN(C(=O)Cc1ccccc1)C1CC1)NC12CC3CC(CC(C3)C1)C2` [Compound 36, N‐(2‐(((3S,5S,7S)‐adamantan‐1‐yl)amino)‐2‐oxoethyl)‐N‐cyclopropyl‐2‐phenylacetamide]: in assay [1], the “Activity (agonist/antagonist)” value is given as “Agonist”, the 50% effective concentration (EC50) was 4900 ± 1700 nM and the Hill coefficient is listed as 2.3 ± 2.6. In addition, in assay [2], the Emax turned out to be 47%.

What is called IC50 is the concentration needed to halve the response being measured. Regarding `O=C(CN(C(=O)c1ccccc1-c1ccccc1)C1CC1)NC12CC3CC(CC(C3)C1)C2` [Compound 33, N‐(2‐(((3S,5S,7S)‐adamantan‐1‐yl)amino)‐2‐oxoethyl)‐N‐cyclopropyl‐[1,1′‐biphenyl]‐2‐carboxamide], in assay [1], the “Activity (agonist/antagonist)” value was “moderate antagonistic activity; also recorded: Antagonist”, the half-inhibitory concentration (IC50) is 1100 ± 1200 nM and the Hill coefficient is 2.0 ± 7.8. Moreover, in assay [2], the Emax turned out to be 48%.

Regarding `O=C(CN(C(=O)c1cc2ccccc2s1)C1CC1)NC12CC3CC(CC(C3)C1)C2` [Compound 35, N‐(2‐(((3S,5S,7S)‐adamantan‐1‐yl)amino)‐2‐oxoethyl)‐N‐cyclopropylbenzo[b]thiophene‐2‐carboxamide], in assay [1], the “Activity (agonist/antagonist)” value is reported as “moderate antagonistic activity; also recorded: Antagonist”, the IC50 was 600 ± 1200 nM and the Hill coefficient was found to be 2.0 ± 4.3. For the same compound, the Emax in assay [2] was found to be 40%.

For `O=C(COC(=O)c1ccc(Cl)cc1)NC12CC3CC(CC(C3)C1)C2` [Compound 28, 2‐((3S,5S,7S)‐adamantan‐1‐ylamino)‐2‐oxoethyl 4‐chlorobenzoate], in assay [1], the “Activity (agonist/antagonist)” value is reported as “agonist activity”, the EC50 was found to be 1200 ± 1200 nM and the Hill coefficient was 0.1 ± 0.2. Further, the Emax in assay [2] was determined as 87%.

For `CC(=O)N(CC(=O)NC12CC3CC(CC(C3)C1)C2)C1CC1` [Compound 34, N‐((3S,5S,7S)‐adamantan‐1‐yl)‐2‐(N‐cyclopropylacetamido)acetamide], in assay [1], the “Activity (agonist/antagonist)” value is given as “Agonist”, the half-maximal effective concentration (EC50) came out at 200 nM and the Hill coefficient came to 0.3 ± 14. The Emax in assay [2] amounted to 54%.

In the case of `CCCC(=O)OCC(=O)NC12CC3CC(CC(C3)C1)C2` [Compound 24, 2‐((3S,5S,7S)‐adamantan‐1‐ylamino)‐2‐oxoethyl butyrate], in assay [1], the “Activity (agonist/antagonist)” value is reported as “agonistic activity; also recorded: Agonist”, the EC50 was found to be 19000 ± 2000 nM and the Hill coefficient came out at 0.6 ± 0.2. Moreover, the Emax in assay [2] stood at 19%.

As to `O=C(COC(=O)c1ccccc1)NC12CC3CC(CC(C3)C1)C2` [Compound 20, 2‐((3S,5S,7S)‐adamantan‐1‐ylamino)‐2‐oxoethyl benzoate], in assay [1], the “Activity (agonist/antagonist)” value was “Antagonist”, the 50% inhibitory concentration (IC50) stood at 1800 ± 1100 nM and the Hill coefficient is given as 0.4 ± 1.2. In addition, in assay [2], the Emax is 60%.

Consider `O=C(CN1CCN(C(=O)C2CCCC2)CC1)NC12CC3CC(CC(C3)C1)C2` [Compound 43, N‐((3S,5S,7S)‐adamantan‐1‐yl)‐2‐(4‐(cyclopentanecarbonyl)piperazin‐1‐yl)acetamide], for which the “fold lower agonist potency compared with α‐aminoacyl amide 32” value in assay [1] (hTRPM8-HEK293, EC50 comparison) is > 10 fold. Also, in assay [1], the “Activity (agonist/antagonist)” value is given as “TRPM8 agonist”, the concentration for a half-maximal effect (EC50) was 9300 ± 1500 nM and the Hill coefficient stood at 0.6 ± 1.8. For the same compound, the Emax in assay [2] is 82%.

Take `CC(=O)N(CC(=O)NC12CC3CC(CC(C3)C1)C2)Cc1ccccc1` [Compound 40, N‐((3S,5S,7S)‐adamantan‐1‐yl)‐2‐(N‐benzylacetamido)acetamide]: in assay [1], the “Activity (agonist/antagonist)” value is on record as “Agonist”, the concentration for a half-maximal effect (EC50) came to 1400 ± 1400 nM and the Hill coefficient was found to be 0.7 ± 2.4. Also, the Emax in assay [2] came out at 86%.

On to `O=C(CN(Cc1ccccc1)C(=O)Cc1ccccc1)NC12CC3CC(CC(C3)C1)C2` [Compound 41, N‐(2‐(((3S,5S,7S)‐adamantan‐1‐yl)amino)‐2‐oxoethyl)‐N‐benzyl‐2‐phenylacetamide], for which, in assay [1], the “Activity (agonist/antagonist)” value is listed as “Agonist”, the EC50 was 900 ± 1100 nM and the Hill coefficient stood at 2.1 ± 1.0. For the same compound, the Emax in assay [2] came to 49%.

In the case of `CCCCN(CC(=O)NC12CC3CC(CC(C3)C1)C2)C(C)=O` [Compound 39, N‐((3S,5S,7S)‐adamantan‐1‐yl)‐2‐(N‐butylacetamido)acetamide], in assay [1], the “Activity (agonist/antagonist)” value was “Agonist”, the concentration for a half-maximal effect (EC50) turned out to be 500 ± 1400 nM and the Hill coefficient is 0.4 ± 9.1. For the same compound, the Emax in assay [2] came to 64%.

For `O=C(COC(=O)c1cccc([N+](=O)[O-])c1)NC12CC3CC(CC(C3)C1)C2` [Compound 29, 2‐((3S,5S,7S)‐adamantan‐1‐ylamino)‐2‐oxoethyl 3‐nitrobenzoate], in assay [1], the “Activity (agonist/antagonist)” value was “Antagonist”, the IC50 was 2300 ± 1100 nM and the Hill coefficient was determined as 0.5 ± 3.0. The Emax in assay [2] is 69%.

`CC(=O)NCCCC(=O)OCC(=O)NC12CC3CC(CC(C3)C1)C2` [Compound 27, 2‐((3S,5S,7S)‐adamantan‐1‐ylamino)‐2‐oxoethyl 4‐acetamidobutanoate]: in assay [1], the “Activity (agonist/antagonist)” value is on record as “agonistic activity; also recorded: Agonist”, the concentration for a half-maximal effect (EC50) was 600 ± 1200 nM and the Hill coefficient is 0.3 ± 1.6. For the same compound, the Emax in assay [2] came to 60%.

As for `CC(=O)OCC(=O)NC12CC3CC(CC(C3)C1)C2` [Compound 22, 2‐((3S,5S,7S)‐adamantan‐1‐ylamino)‐2‐oxoethyl acetate], in assay [1], the “Activity (agonist/antagonist)” value is given as “agonistic activity; also recorded: Agonist”, the concentration giving a half-maximal response (EC50) came out at 1100 ± 1500 nM and the Hill coefficient came to 0.4 ± 1.3. The Emax in assay [2] was determined as 64%.

On to `O=C(COC(=O)C1CCCC1)NC12CC3CC(CC(C3)C1)C2` [Compound 25, 2‐((3S,5S,7S)‐adamantan‐1‐ylamino)‐2‐oxoethyl cyclopentane carboxylate], for which, in assay [1], the “Activity (agonist/antagonist)” value was “Antagonist”, the IC50 came out at 45000 ± 2000 nM and the Hill coefficient worked out at 0.8 ± 3.0. Further, in assay [2], the Emax was 57%.

`CC(=O)N1CCN(CC(=O)NC23CC4CC(CC(C4)C2)C3)CC1` [Compound 45, 2‐(4‐acetylpiperazin‐1‐yl)‐N‐((3S,5S,7S)‐adamantan‐1‐yl)acetamide]: in assay [1], the “Activity (agonist/antagonist)” value is recorded as “Agonist”, the concentration for a half-maximal effect (EC50) came to 2300 ± 1600 nM and the Hill coefficient came to 0.7 ± 2.1. Moreover, the Emax in assay [2] is 54%.

For `O=C(CN1CCN(C(=O)Cc2ccccc2)CC1)NC12CC3CC(CC(C3)C1)C2` [Compound 44, N‐((3S,5S,7S)‐adamantan‐1‐yl)‐2‐(4‐(2‐phenylacetyl)piperazin‐1‐yl)acetamide], in assay [1], the “Activity (agonist/antagonist)” value is listed as “Agonist”, the EC50 turned out to be 9600 ± 1500 nM and the Hill coefficient was found to be 0.7 ± 4.0. The Emax in assay [2] was determined as 69%.

In the case of `O=C(CN1CCN(C(=O)c2ccccc2)CC1)NC12CC3CC(CC(C3)C1)C2` [Compound 42, N‐((3S,5S,7S)‐adamantan‐1‐yl)‐2‐(4‐benzoylpiperazin‐1‐yl)acetamide], in assay [1], the “Activity (agonist/antagonist)” value is listed as “Agonist”, the EC50 amounted to 5400 ± 1500 nM and the Hill coefficient was found to be 0.4 ± 4.3. In addition, the Emax in assay [2] turned out to be 73%.
